Data taken from PMC6226504, “Ca^2+ efflux via plasma membrane Ca^2+-ATPase mediates chemotaxis in ascidian sperm” (Scientific Reports, 2018).

Target: T1, plasma membrane Ca2+-ATPase (PMCA), Atp2b-var.b-mut3 (Ciona intestinalis, UniProt A0A3G9HPC9, R951A/H956A/H962A)
T1 construct: Atp2b-var.b-mut3, recombinant, in Sf9 cell membrane fraction
Experiment: quartz crystal microbalance (QCM), mutant compared with wild-type membranes
Type: binding

T1 sequence (A0A3G9HPC9 1-1165 R951A/H956A/H962A): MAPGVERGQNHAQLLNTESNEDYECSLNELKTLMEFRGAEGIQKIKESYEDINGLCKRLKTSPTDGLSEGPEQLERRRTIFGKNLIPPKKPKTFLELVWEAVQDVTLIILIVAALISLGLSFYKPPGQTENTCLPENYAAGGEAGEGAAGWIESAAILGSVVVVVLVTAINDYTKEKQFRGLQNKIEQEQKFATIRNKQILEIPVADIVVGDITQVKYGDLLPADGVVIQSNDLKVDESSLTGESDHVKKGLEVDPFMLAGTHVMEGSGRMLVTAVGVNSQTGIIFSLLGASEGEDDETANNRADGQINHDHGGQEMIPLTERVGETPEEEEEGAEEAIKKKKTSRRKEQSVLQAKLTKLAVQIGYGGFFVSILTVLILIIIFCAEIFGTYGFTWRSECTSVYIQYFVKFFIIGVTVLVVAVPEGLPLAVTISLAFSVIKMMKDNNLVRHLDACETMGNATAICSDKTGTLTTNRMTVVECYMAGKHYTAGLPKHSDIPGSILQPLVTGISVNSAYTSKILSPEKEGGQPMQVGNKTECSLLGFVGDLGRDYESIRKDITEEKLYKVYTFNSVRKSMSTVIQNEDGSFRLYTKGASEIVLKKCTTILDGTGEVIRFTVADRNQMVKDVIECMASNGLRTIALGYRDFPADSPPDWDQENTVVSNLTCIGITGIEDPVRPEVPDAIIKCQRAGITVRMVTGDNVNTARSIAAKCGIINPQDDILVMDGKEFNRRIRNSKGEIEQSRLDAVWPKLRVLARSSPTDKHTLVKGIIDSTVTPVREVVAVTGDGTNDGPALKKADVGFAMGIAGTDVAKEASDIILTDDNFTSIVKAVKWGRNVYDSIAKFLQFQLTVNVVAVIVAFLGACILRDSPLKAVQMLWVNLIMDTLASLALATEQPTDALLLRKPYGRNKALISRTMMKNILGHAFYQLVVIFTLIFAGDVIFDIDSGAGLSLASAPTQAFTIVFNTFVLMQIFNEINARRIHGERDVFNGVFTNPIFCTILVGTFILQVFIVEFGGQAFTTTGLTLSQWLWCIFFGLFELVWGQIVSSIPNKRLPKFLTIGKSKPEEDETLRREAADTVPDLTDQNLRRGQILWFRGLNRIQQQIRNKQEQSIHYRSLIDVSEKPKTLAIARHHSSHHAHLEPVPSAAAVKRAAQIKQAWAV

Structure (SMILES): C[C@@H](CCC[C@@H](C)[C@H]1CC[C@H]2[C@@H]3[C@H](O)C[C@H]4[C@@H](O)[C@H](OS(=O)(=O)O)CC[C@]4(C)[C@H]3CC[C@]12C)COS(=O)(=O)O [SAAF]
- quartz crystal microbalance (QCM), mutant compared with wild-type membranes: Atp2b-var.b-mut3 showed the same interaction compared to the wild-type
